Literature values, collected in patent US10028918B2, “Nanoparticle delivery vehicle for S-nitroso-N-acetyl cysteine and uses thereof” (ALBERT EINSTEIN COLLEGE OF MEDICINE, INC., priority 2012, dated 2018).

Tested on: rats
Settings: normal and acute hypertension induced rats

## CC(=O)N[C@@H](CSN=O)C(=O)O [NAC-SNO, S-nitroso-N-acetyl cysteine]
  Duration of vascular effect: ~9 min
